The values that follow come from US5523315A, “N-(hydroxyethyl)butanediamide derivatives” (Bio-Mega/Boehringer Ingelheim Research Inc., priority 1993, dated 1996).

In this assay the target is T1, human renin (Homo sapiens, UniProt P00797).
T1 construct: A human plasma pool is used as the source of both the substrate (angiotensinogen) and the enzyme (renin); from tissue; host or cells: pooled human plasma
T1 sequence (P00797 67-406): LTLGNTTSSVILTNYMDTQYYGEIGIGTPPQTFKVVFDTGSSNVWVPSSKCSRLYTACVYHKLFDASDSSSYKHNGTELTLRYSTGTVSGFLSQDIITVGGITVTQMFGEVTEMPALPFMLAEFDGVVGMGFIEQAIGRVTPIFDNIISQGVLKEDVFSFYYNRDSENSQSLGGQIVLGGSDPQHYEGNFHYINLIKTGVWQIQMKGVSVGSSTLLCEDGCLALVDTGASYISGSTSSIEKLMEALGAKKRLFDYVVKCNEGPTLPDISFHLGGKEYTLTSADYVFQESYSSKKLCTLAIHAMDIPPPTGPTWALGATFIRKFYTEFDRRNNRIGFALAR
The assay can be described thus: plasma renin assay (inhibition of human renin; angiotensin I generated, measured by radioimmunoassay). The format is biochemical. The conditions noted are these: human plasma pool, pH 6.0, 2 h incubation at 37°. The procedure: The assay is performed as follows: The test compound (i.e. the inhibitor) is dissolved in dimethylsulfoxide (1 mM stock solution) and diluted with an aqueous buffer solution of 270 mM 2-(N-morpholino)ethanesulfonic acid and 1% human serum albumin (pH 5.85, also containing dimercaprol and 8-hydroxyquinoline sulfate in accordance with the instructions of the RIA kit noted below) to give an assay mixture in which the final dimethylsulfoxide content is 1% (v/v).
A human plasma pool is used as the source of both the substrate (angiotensinogen) and the enzyme (renin). The reaction is initiated by the addition of 50 μL of human plasma pool to 50 μL of various concentrations of inhibitor in the 1% dimethylsulfoxide assay buffer. The plasma renin activity is measured by the amount of angiotensin I generated at pH 6.0 following a 2 h incubation at 37°.
Quantitation of angiotensin I is performed by radioimmunoassay (RIA kit from New England Nuclear-Dupont, Mississauga, ON, Canada). The enzymatic activity of renin is expressed in ng of angiotensin I generated (/mL/2 h). The extent of inhibition of the reaction is determined from the amount of angiotensin I generated in reference to a control prepared without inhibitor. Nonlinear regression analysis is used to calculate the IC50 values, i.e. the molar concentration of the test compound required to cause a 50% inhibition of the enzyme activity.
Usually IC50 stands for the concentration at which inhibition is half-maximal. `CC(C)C[C@H](O)[C@H](O)[C@H](CC1CCCCC1)NC(=O)[C@@H](CC(=O)N(CC(=O)N(C)C)CC(O)C1CCCCC1)Cc1cscn1` (mixture of isomers) [Compound 42, N^4-[2-cyclohexyl-2(R,S)-hydroxyethyl]-N^4-[2-(dimethylamino)-2-oxoethyl]-N^1-[1(S)-(cyclohexylmethyl)-2(R),3(S)-dihydroxy-5-methylhexyl]-2(R)-(4-thiazolylmethyl)butanediamide] showed an IC50 of 16 nM. For the molecule `CC(C)C[C@H](O)[C@H](O)[C@H](CC1CCCCC1)NC(=O)[C@@H](CC(=O)N(Cc1ccccc1)CC1(O)CCCCC1)Cc1cscn1` [Compound 27, N^4-benzyl-N^4-[ (1-hydroxycyclohexyl)methyl]-N^1-[1(S)-(cyclohexylmethyl)-2(R),3(S)-dihydroxy-5-methylhexyl]-2(R)-(4-thiazolylmethyl)butanediamide], the IC50 is 15 nM. The value for `CC(C)C[C@H](O)[C@H](O)[C@H](CC1CCCCC1)NC(=O)[C@@H](CC(=O)N(CC(=O)C(C)C)CC1CCCCC1)Cc1csc(N)n1` [Compound 63, N^4-(cyclohexylmethyl)-N^4-(3-methyl-2-oxobutyl)-N^1-[1(S)-(cyclohexylmethyl)-2(R),3(S)-dihydroxy-5-methylhexyl]-2(R)-[(2-amino-4-thiazolyl)methyl]butanediamide] was 5 nM; that for `CC(C)C[C@H](O)[C@H](O)[C@H](CC1CCCCC1)NC(=O)[C@@H](CC(=O)N(CCO)CC1(O)CCCCC1)Cc1cscn1` [Compound 37, N^4-[(1-hydroxycyclohexyl)methyl]-N^4-(2-hydroxyethyl)-N^1-[1(S)-(cyclohexylmethyl)-2(R),3(S)-dihydroxy-5-methylhexyl]-2(R)-(4-thiazolylmethyl)butanediamide] was 16 nM; that for `CC(C)C[C@H](O)[C@H](O)[C@H](CC1CCCCC1)NC(=O)[C@@H](CC(=O)N(CC1CCCCC1)CC(C)(C)O)Cc1csc(N)n1` [Compound 41, N^4-(cyclohexylmethyl)-N^4-(2-hydroxy-2-methylpropyl)-N^1-[1(S)-(cyclohexylmethyl)-2(R),3(S)-dihydroxy-5-methylhexyl]-2(R)-[(2-amino-4-thiazolyl)methyl]butanediamide] was 9 nM.

With `CC(C)C[C@H](O)[C@H](O)[C@H](CC1CCCCC1)NC(=O)[C@@H](CC(=O)N(Cc1ccccc1)CC1(O)CCCCC1)CC1CC1` [Compound 1, N^4-benzyl-N^4-[(1-hydroxycyclohexyl)methyl]-N^1-[1(S)-(cyclohexylmethyl)-2(R),3(S)-dihydroxy-5-methylhexyl]-2(R)-(cyclopropylmethyl)butanediamide], the concentration for half-maximal inhibition (IC50) stood at 36 nM. `CC(C)C[C@H](O)[C@H](O)[C@H](CC1CCCCC1)NC(=O)[C@@H](CC(=O)N(CC1CCCC1)CC(C)(C)O)Cc1csc(N)n1` [Compound 47, N^4-(cyclopentylmethyl)-N^4-(2-hydroxy-2-methylpropyl)-N^1-[1(S)-(cyclohexylmethyl)-2(R),3(S)-dihydroxy-5-methylhexyl]-2(R)-[(2-amino-4-thiazolyl)methyl]butanediamide] gave a half-maximal inhibitory concentration (IC50) of 7 nM. In turn, `CC(C)C[C@H](O)[C@H](O)[C@H](CC1CCCCC1)NC(=O)[C@@H](CC(=O)N(CC1CCCC1)CC(C)(C)O)Cc1cscn1` [Compound 50, N^4-(cyclopentylmethyl)-N^4-(2-hydroxy-2-methylpropyl)-N^1-[1(S)-(cyclohexylmethyl)-2(R),3(S)-dihydroxy-5-methylhexyl]-2(R)-(4-thiazolylmethyl)butanediamide] had a concentration for half-maximal inhibition (IC50) of 13 nM. The value for `CC(C)C[C@H](O)[C@H](O)[C@H](CC1CCCCC1)NC(=O)[C@@H](CC(=O)N[C@@H](CO)Cc1ccccc1)CC1CC1` [Compound 13, N^4-(R)-[1-(hydroxymethyl)-2-phenylethyl]-N^1-[1(S)-(cyclohexylmethyl)-2(R),3(S)-dihydroxy-5-methylhexyl]-2(R)-(cyclopropylmethyl)butanediamide] was 89 nM.
